These results are taken from ChEMBL document CHEMBL1201862, “PubChem BioAssay data set” (2004).

Active and inactive are the calls of the source.

For assay [1], the target named is Serine/threonine-protein kinase PLK3 (Homo sapiens, UniProt Q9H4B4). Format: functional.
The target in assay [2] is MAP kinase-activated protein kinase 2 (Homo sapiens, UniProt P49137). The format is functional.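 Further: measured as one member of a kinome-wide kinase panel.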
Assay [3] concerns the target RNA-editing ligase 1, mitochondrial (Trypanosoma brucei brucei, UniProt P86926). Put plainly: TbREL1 ligase inhibitors, dose response, biochemical, fluorescence, Trypanosoma brucei (AID 1117295). Format: functional.
For assay [4], the target named is Large T antigen (Simian virus 40, UniProt P03070). The format is functional, Betapolyomavirus macacae.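 Further: Confirmatory-stage PubChem screen for compounds that inhibit SV40 T antigen.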
Sequence of Large T antigen (P03070 whole entry): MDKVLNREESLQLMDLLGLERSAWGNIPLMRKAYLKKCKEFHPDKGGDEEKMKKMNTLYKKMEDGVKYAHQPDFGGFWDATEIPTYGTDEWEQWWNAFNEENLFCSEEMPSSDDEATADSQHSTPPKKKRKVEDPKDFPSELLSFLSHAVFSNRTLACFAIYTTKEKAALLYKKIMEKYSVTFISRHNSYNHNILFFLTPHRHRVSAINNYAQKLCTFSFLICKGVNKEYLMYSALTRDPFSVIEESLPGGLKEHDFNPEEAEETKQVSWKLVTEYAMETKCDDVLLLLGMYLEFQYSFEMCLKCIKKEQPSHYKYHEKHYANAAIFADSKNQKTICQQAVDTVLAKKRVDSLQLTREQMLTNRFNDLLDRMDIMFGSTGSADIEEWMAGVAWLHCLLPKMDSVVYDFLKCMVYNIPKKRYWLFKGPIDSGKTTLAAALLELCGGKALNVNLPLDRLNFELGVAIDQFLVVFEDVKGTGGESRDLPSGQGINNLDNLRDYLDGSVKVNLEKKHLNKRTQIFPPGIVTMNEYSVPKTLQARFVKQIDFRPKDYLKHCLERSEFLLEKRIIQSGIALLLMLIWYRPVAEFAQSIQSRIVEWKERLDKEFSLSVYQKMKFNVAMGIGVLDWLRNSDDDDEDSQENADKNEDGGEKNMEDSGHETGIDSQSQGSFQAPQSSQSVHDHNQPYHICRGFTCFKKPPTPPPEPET

Sequence of MAP kinase-activated protein kinase 2 (P49137 whole entry): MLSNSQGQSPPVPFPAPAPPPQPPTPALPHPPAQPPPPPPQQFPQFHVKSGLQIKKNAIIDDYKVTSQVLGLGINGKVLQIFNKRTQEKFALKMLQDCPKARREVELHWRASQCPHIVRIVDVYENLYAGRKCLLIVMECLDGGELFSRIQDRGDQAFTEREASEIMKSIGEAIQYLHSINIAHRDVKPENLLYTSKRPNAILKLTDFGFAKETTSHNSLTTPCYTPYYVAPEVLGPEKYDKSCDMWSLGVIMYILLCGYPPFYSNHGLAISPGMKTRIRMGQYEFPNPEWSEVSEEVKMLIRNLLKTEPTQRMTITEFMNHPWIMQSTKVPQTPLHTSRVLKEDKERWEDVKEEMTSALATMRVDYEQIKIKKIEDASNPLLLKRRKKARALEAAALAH
Sequence of Serine/threonine-protein kinase PLK3 (Q9H4B4 whole entry): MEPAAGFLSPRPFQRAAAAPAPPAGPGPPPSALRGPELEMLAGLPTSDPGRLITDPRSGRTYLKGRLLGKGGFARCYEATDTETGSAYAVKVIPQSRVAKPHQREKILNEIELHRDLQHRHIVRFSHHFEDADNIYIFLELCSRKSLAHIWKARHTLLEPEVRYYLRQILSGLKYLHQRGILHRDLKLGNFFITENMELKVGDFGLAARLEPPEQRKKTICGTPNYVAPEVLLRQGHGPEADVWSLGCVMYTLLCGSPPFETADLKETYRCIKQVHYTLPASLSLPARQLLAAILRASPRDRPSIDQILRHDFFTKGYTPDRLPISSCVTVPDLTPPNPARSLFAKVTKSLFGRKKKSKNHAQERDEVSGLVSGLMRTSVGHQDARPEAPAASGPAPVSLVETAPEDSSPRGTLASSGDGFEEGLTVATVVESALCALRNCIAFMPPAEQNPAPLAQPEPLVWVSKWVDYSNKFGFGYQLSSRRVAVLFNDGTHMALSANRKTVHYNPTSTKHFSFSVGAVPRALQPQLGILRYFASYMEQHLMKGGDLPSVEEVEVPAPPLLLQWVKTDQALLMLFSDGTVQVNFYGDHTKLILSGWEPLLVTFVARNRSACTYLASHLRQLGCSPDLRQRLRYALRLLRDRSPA
Sequence of RNA-editing ligase 1, mitochondrial (P86926 whole entry): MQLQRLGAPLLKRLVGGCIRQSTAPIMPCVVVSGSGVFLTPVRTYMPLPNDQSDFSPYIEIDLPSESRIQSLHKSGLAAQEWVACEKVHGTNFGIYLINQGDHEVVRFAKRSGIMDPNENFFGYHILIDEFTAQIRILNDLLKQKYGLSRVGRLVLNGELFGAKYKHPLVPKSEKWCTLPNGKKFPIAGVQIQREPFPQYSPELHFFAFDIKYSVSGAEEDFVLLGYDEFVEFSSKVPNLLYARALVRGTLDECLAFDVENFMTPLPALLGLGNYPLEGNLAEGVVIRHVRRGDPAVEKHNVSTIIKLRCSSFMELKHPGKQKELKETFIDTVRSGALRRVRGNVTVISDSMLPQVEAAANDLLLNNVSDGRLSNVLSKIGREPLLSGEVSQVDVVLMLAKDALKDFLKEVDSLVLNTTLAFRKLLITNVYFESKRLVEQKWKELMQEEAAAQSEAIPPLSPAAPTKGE

With `Cc1cccc(NC(=O)Nc2ccc3c(c2)CCc2sc4ncnc(N)c4c2-3)c1`, the Ki in assay [1] was 2 µM (active); in assay [2], > 7.94 µM (inactive).
On to `N/C(=N\N=C/c1ccc(-c2ccc(O)c(C(=O)O)c2)o1)N[N+](=O)[O-]`, for which the IC50 in assay [3] was 21.2 µM (inactive); in assay [4] it was 25.4 µM (active).
